In PubChem BioAssay (NCI):
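Test compounds were applied to cells in 96-well plates for 48 hours at 5 doses. Abbreviation: GI50, concentration required for 50% inhibition of growth. The concentration for full growth arrest is given as TGI.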

Columns and labels:
Test in all cases: NCI tumour cell line growth inhibition, 48 h; in the data active = GI50 below about 0.43 µM; inactive = the rest
SF-268 CNS = test system: SF-268 CNS
MDA-MB-435 = test system: MDA-MB-435
HL-60(TB) leukemia = test system: HL-60(TB) leukemia
OVCAR-3 ovarian = test system: OVCAR-3 ovarian
RPMI-8226 leukemia = test system: RPMI-8226 leukemia
SF-539 CNS = test system: SF-539 CNS
CCRF-CEM leukemia = test system: CCRF-CEM leukemia
786-0 renal = test system: 786-0 renal
A498 renal = test system: A498 renal
NCI/ADR-RES ovarian = test system: NCI/ADR-RES ovarian
MDA-MB-231 breast = test system: MDA-MB-231 breast
HCT-116 colon = test system: HCT-116 colon
OVCAR-8 ovarian = test system: OVCAR-8 ovarian
MCF7 breast = test system: MCF7 breast
BT-549 breast = test system: BT-549 breast
MOLT-4 leukemia = test system: MOLT-4 leukemia
UO-31 renal = test system: UO-31 renal
KM12 colon = test system: KM12 colon
HS 578T breast = test system: HS 578T breast
OVCAR-5 ovarian = test system: OVCAR-5 ovarian
RXF 393 renal = test system: RXF 393 renal
U251 CNS = test system: U251 CNS
IGROV1 ovarian = test system: IGROV1 ovarian
SK-MEL-28 melanoma = test system: SK-MEL-28 melanoma
PC-3 prostate = test system: PC-3 prostate
MALME-3M melanoma = test system: MALME-3M melanoma
DU-145 prostate = test system: DU-145 prostate
TK-10 renal = test system: TK-10 renal
SW-620 colon = test system: SW-620 colon
A549 NSCLC = test system: A549 NSCLC
ACHN renal = test system: ACHN renal
K-562 leukemia = test system: K-562 leukemia
SF-295 CNS = test system: SF-295 CNS
NCI-H226 lung = test system: NCI-H226 lung
NCI-H460 lung = test system: NCI-H460 lung
SN12C renal = test system: SN12C renal
HOP-62 NSCLC = test system: HOP-62 NSCLC
T-47D breast = test system: T-47D breast
SK-OV-3 ovarian = test system: SK-OV-3 ovarian
CAKI-1 renal = test system: CAKI-1 renal
NCI-H23 lung = test system: NCI-H23 lung
SNB-19 CNS = test system: SNB-19 CNS
SNB-75 CNS = test system: SNB-75 CNS
NCI-H522 lung = test system: NCI-H522 lung
LOX IMVI melanoma = test system: LOX IMVI melanoma
HCT-15 colon = test system: HCT-15 colon
HOP-92 NSCLC = test system: HOP-92 NSCLC
UACC-257 melanoma = test system: UACC-257 melanoma
SR leukemia = test system: SR leukemia
SK-MEL-2 melanoma = test system: SK-MEL-2 melanoma
OVCAR-4 ovarian = test system: OVCAR-4 ovarian
COLO 205 colon = test system: COLO 205 colon
M14 melanoma = test system: M14 melanoma
HT29 colon = test system: HT29 colon
UACC-62 melanoma = test system: UACC-62 melanoma
SK-MEL-5 melanoma = test system: SK-MEL-5 melanoma
HCC-2998 colon = test system: HCC-2998 colon

CCN(CC)CCC(=O)Nc1cccc2c1C(=O)c1c(c(O)c3ccccc3c1O)C2=O
39.1 µM: TGI (HOP-62 NSCLC)
8.56 µM: TGI (HOP-92 NSCLC)
23.8 µM: TGI (RXF 393 renal)
10.8 µM: TGI (SNB-75 CNS)
14.4 µM: TGI (SK-MEL-28 melanoma)
26.1 µM: TGI (MDA-MB-231 breast)
72.5 µM: TGI (MOLT-4 leukemia)
23.7 µM: TGI (LOX IMVI melanoma)
13.8 µM: TGI (SF-539 CNS) | TGI (K-562 leukemia)
44.8 µM: TGI (SNB-19 CNS)
40.9 µM: TGI (TK-10 renal)
21.7 µM: TGI (PC-3 prostate)
61.2 µM: TGI (DU-145 prostate)
22.7 µM: TGI (U251 CNS)
57 µM: TGI (A549 NSCLC)
30 µM: TGI (OVCAR-5 ovarian)
36.5 µM: TGI (SF-268 CNS)
47.6 µM: TGI (A498 renal)
4.39 µM: TGI (786-0 renal)
active: GI50 (HOP-92 NSCLC) 0.237 µM
26.9 µM: TGI (OVCAR-8 ovarian)
88.7 µM: TGI (MALME-3M melanoma)
4.71 µM: TGI (CCRF-CEM leukemia)
52.2 µM: TGI (OVCAR-3 ovarian)
43.1 µM: TGI (RPMI-8226 leukemia)
23.1 µM: TGI (OVCAR-4 ovarian)
96.8 µM: TGI (IGROV1 ovarian)
> 100 µM: TGI (MDA-MB-435) | TGI (HL-60(TB) leukemia) | TGI (HCT-116 colon) | TGI (KM12 colon) | TGI (HS 578T breast) | TGI (SF-295 CNS) | TGI (NCI-H226 lung) | TGI (SN12C renal) | TGI (T-47D breast) | TGI (SK-OV-3 ovarian) | TGI (CAKI-1 renal) | TGI (NCI-H23 lung) | TGI (NCI-H522 lung) | TGI (HCT-15 colon) | TGI (UACC-257 melanoma) | TGI (SK-MEL-2 melanoma) | TGI (COLO 205 colon) | TGI (M14 melanoma) | TGI (HT29 colon) | TGI (UACC-62 melanoma) | TGI (SK-MEL-5 melanoma) | TGI (HCC-2998 colon)
81.3 µM: TGI (NCI-H460 lung)
52.4 µM: TGI (SR leukemia)
23 µM: TGI (SW-620 colon)
52.3 µM: TGI (BT-549 breast)
40.4 µM: TGI (NCI/ADR-RES ovarian)
22.9 µM: TGI (MCF7 breast)
38.5 µM: TGI (ACHN renal)
inactive: GI50 (SF-268 CNS) 12.7 µM | GI50 (MDA-MB-435) 31 µM | GI50 (HL-60(TB) leukemia) > 100 µM | GI50 (OVCAR-3 ovarian) 15 µM | GI50 (RPMI-8226 leukemia) 14.2 µM | GI50 (SF-539 CNS) 3.38 µM | GI50 (CCRF-CEM leukemia) 1.34 µM | GI50 (786-0 renal) 2.08 µM | GI50 (A498 renal) 17.7 µM | GI50 (NCI/ADR-RES ovarian) 3.94 µM | GI50 (MDA-MB-231 breast) 9.64 µM | GI50 (HCT-116 colon) 8.8 µM | GI50 (OVCAR-8 ovarian) 10.5 µM | GI50 (MCF7 breast) 6.77 µM | GI50 (BT-549 breast) 19.5 µM | GI50 (MOLT-4 leukemia) 8.27 µM | GI50 (UO-31 renal) 1.12 µM | GI50 (KM12 colon) 21.5 µM | GI50 (HS 578T breast) 16.2 µM | GI50 (OVCAR-5 ovarian) 14.6 µM | GI50 (RXF 393 renal) 4.16 µM | GI50 (U251 CNS) 10.2 µM | GI50 (IGROV1 ovarian) 18.9 µM | GI50 (SK-MEL-28 melanoma) 3.65 µM | GI50 (PC-3 prostate) 4.6 µM | GI50 (MALME-3M melanoma) 26.9 µM | GI50 (DU-145 prostate) 15.5 µM | GI50 (TK-10 renal) 20.9 µM | GI50 (SW-620 colon) 6.93 µM | GI50 (A549 NSCLC) 17.7 µM | GI50 (ACHN renal) 4.63 µM | GI50 (K-562 leukemia) 2.67 µM | GI50 (SF-295 CNS) 12.8 µM | GI50 (NCI-H226 lung) 17.1 µM | GI50 (NCI-H460 lung) 13.3 µM | GI50 (SN12C renal) 21.5 µM | GI50 (HOP-62 NSCLC) 10.4 µM | GI50 (T-47D breast) > 100 µM | GI50 (SK-OV-3 ovarian) 85.3 µM | GI50 (CAKI-1 renal) > 100 µM | GI50 (NCI-H23 lung) 21.9 µM | GI50 (SNB-19 CNS) 16.8 µM | GI50 (SNB-75 CNS) 2.11 µM | GI50 (NCI-H522 lung) 80.3 µM | GI50 (LOX IMVI melanoma) 5.77 µM | GI50 (HCT-15 colon) 0.934 µM | GI50 (UACC-257 melanoma) 41.6 µM | GI50 (SR leukemia) 0.878 µM | GI50 (SK-MEL-2 melanoma) > 100 µM | GI50 (OVCAR-4 ovarian) 4.05 µM | GI50 (COLO 205 colon) 20.7 µM | GI50 (M14 melanoma) 35.4 µM | GI50 (HT29 colon) 19.3 µM | GI50 (UACC-62 melanoma) > 100 µM | GI50 (SK-MEL-5 melanoma) 49.7 µM | GI50 (HCC-2998 colon) > 100 µM
3.31 µM: TGI (UO-31 renal)
